Test results published in US12208092B2, “Compositions and methods for administering paltusotine to patients with hepatic impairment” (CRINETICS PHARMACEUTICALS, INC., priority 2023, dated 2025).

Assays:
[1] = plasma exposure in 14-day rat study; type: in vivo; conditions: 10 mg/kg/day oral
[2] = SAD/MAD oral administration in healthy adult male subjects; type: in vivo, human; conditions: 1.25 to 20 mg (SAD) and 5 to 30 mg (MAD)
Protocol: A dose of 20 mg paltusotine was chosen for the oral dose in the ADME study as a possible therapeutic dose estimated by PD activities of suppression of growth hormone releasing hormone (GHRH) stimulated GH secretion.

[3] = Phase 1 mass balance (ADME) study, single oral 20 mg [14C]-paltusotine, healthy male volunteers; type: in vivo, human
Protocol: This was a Phase I, open-label, single-dose study with a primary objective to characterize the absorption, distribution, metabolism, excretion, and mass balance of a single oral dose of 20 mg paltusotine containing 3.0 MBq (80 μCi) of [^14C]-labeled paltusotine in healthy male subjects.
Subjects received a single oral dose of 20 mg paltusotine as an oral solution containing 3.0 MBq (80 μCi) of radioactivity on Day 1. For oral dosing, the total volume ingested by the subject, including the study drug (10 mL), the rinse solutions (a total of 100 mL; 2 drug vial rinses with 50 mL of water per rinse), and tap water (130 mL), was 240 mL. The subjects had to ingest all solutions in the upright position within 2 minutes between 8 AM and 11 AM after an overnight fast of at least 10 hours. Fasting continued for a period of 4 hours after oral drug administration. The time of oral dosing administration was recorded, and the empty study drug vials were measured for residual radioactivity.
Blood samples were taken for the analysis of unlabeled paltusotine and [^14C]-paltusotine concentrations, and metabolite profiling. Blood samples for analysis of pharmacokinetic parameters of paltusotine in plasma, quantification of total radioactivity in blood and plasma, and metabolite profiling were collected at predose and 0.25, 0.5, 0.75, 1, 1.5, 2, 3, 4, 8, 12, 24, 48, 72, 120, and 168 hours postdose (and every 48 hours thereafter, if needed, to assess radioactivity).
Urine was collected for the analysis of total radioactivity, for quick counts of total radioactivity, and for metabolite profiling. The subjects were instructed to urinate completely before study drug administration and at the end of each collection interval. A baseline urine sample was collected within 12 hours prior to each study drug administration. Urine was collected for quantification of total radioactivity and metabolite profiling at predose, 3 intervals on Day 1 (at 0-4, 4-8, and 8-24 hours postdose), and every 24 hours thereafter until discharge criteria were met.
All fecal excretions were collected for the analysis of total radioactivity, for quick counts of total radioactivity, and for metabolite profiling. A baseline fecal sample was collected within 48 hours prior to study drug administration and could be collected at home. The baseline sample was taken from the last bowel movement before study drug intake. Feces were collected for quantification of total radioactivity and metabolite profiling at predose and in 24-hour intervals until discharge criteria were met.
Analysis of paltusotine in plasma was performed by Q2 Solutions (IQVIA, Itaca, NY, USA) using a validated liquid chromatography-tandem mass spectrometry (LC-MS/MS) method. The lower limit of quantitation (LLOQ) for paltusotine in plasma was 0.5 ng/mL.
Analysis of total ^14C radioactivity in plasma, whole blood, urine, and feces was performed at the bioanalytic laboratory of PRA Heath Sciences via a validated liquid scintillation counting method. The LLOQ for total reactivity was 3.36 ng-eq/mL in plasma and 5.6 ng-eq/mL in whole blood.
Metabolite profiling of plasma, urine, and feces was performed at WuXi AppTec (Cranbury, NJ, USA). For plasma, samples were pooled by timepoint (0.5, 1, 1.5, 2, 4, 8, 12, and 24 hours postdose) for metabolite profiling. In addition, plasma samples were pooled by participant across timepoints (0-48 hours) using the Hamilton method and analyzed to determine the quantitative profile of radiolabeled components. Prior to radio-profiling, plasma samples were extracted using solid phase extraction.
For urine and feces, samples were pooled by timepoint (0-8, 8-24, and 24-72 hours postdose). Prior to radio-profiling, urine samples were centrifuged to remove solids, and fecal homogenates were extracted with acetonitrile. Plasma and fecal extracts and urine supernatants were subjected to LC separation and fraction collection. […]

[4] = system: human liver microsomes and recombinant CYP450s; test: CYP phenotyping, in vitro metabolism; type: in vitro ADME
[5] = system: large panel of other known receptors, channels, and enzymes
[6] = scaled from paltusotine and excretory metabolites

SMILES: N#Cc1cccc(-c2ccc3ncc(-c4cc(F)cc(F)c4)c(N4CCC(N)CC4)c3c2)c1O [paltusotine, 3-[4-(4-amino-1-piperidyl)-3-(3,5-difluorophenyl)-6-quinolyl]-2-hydroxybenzonitrile]
- AUC(0-t) ([1]; read-out: day-last mean plasma AUC0-24): 975 ng·h/mL
- Cmax ([1]; read-out: day-last mean plasma Cmax): 127 ng/mL
- AUC dose dependence [2]: increased dose-dependently
- component in feces ([3]; feces): 39.7 % of the dose
- drug-related components detected in plasma ([3]; human plasma 0-48 h): the only drug-related component detected in human plasma (0-48 h) was paltusotine
- administered radioactivity recovered in the feces ([3]; human, in vivo): 90%
- administered radioactivity recovered in the urine ([3]; human, in vivo): 3.9%
- dose excreted in the feces by metabolic profiling of excreta ([3]; human, in vivo): approximately 84%
- total radioactivity excreted over 120 h ([3]; human, in vivo): 88 % of the administered dose
- glucuronidation pathway share of metabolic clearance [3, 6]: 27.9 % of the dose
- oxidative route share of metabolic clearance [3, 6]: 14.3%
- component in urine ([3]; urine): 1.33 % of dose
- unchanged paltusotine and metabolites excreted in urine ([3]; urine): < 4 % of the total administered radioactivity
- total mean recovery of administered radioactivity ([3]; urine and feces): 94%
- CYP enzymes catalyzing oxidative metabolism [4]: CYP3A4/5 catalyzes the oxidative metabolism of paltusotine with minor contribution of CYP2D6
- contribution of CYP-mediated metabolism ([4]; in vitro studies): ~16.8%
- selectivity for SST2 over panel of other receptors, channels, and enzymes [5]: > 2000 fold
